# From US9381174B2, “Composition and method for exterminating animal parasite” (Mitsui Chemicals Agro, Inc., priority 2012, dated 2016)
# System: Ctenocephalides felis
# Assay: Insecticidal Test for Ctenocephalides felis (treated filter paper contact)
# Format: in vivo
# Conditions: 50 μg/cm^2 on filter paper; emerged adult fleas; 72 hours of exposure; dead including moribund; in triplicate
# Description: 0.2 mL of an acetone solution was added dropwise to a round filter paper having a diameter of 4.0 cm that were grasped with tweezers so that each of the compounds was included in an amount of 50 μg/cm^2. After the addition, the filter paper was dried at room temperature for 24 hours for use in the test.
# Three 200 mL vials were used per compound. The filter paper treated with a test agent was placed tightly into a lid of the vials so that fleas might be contacted with the paper.
# About 20 emerged adult fleas were added to each of the 200 mL vials using an aspirator. Then immediately, the vial was sealed with the lid into which the filter paper that was treated with the agent was tightly placed. It was examined if the fleas that were already dead were added. In a case in which dead fleas were found, the number of the dead fleas was subtracted from the total number.
# The vials were turned upside down so that the fleas were always contacted with the filter paper. After 24, 48, and 72 hours of the exposure, the conditions of the fleas were examined and classified into “alive” and “dead (including a moribund condition)” to determine the death rates (in triplicate). The death rates after 72 hours are illustrated in Table 8.
# The death rates were calculated as follows: Death Rate (%)=(Number of Dead Fleas including Moribund Fleas)/Total Number of Fleas×100
row,Compound,Death Rate after 72 hours (%)
1,CCN(C)C(=O)C(=O)Nc1cccc(C(=O)Nc2c(Br)cc(C(F)(C(F)(F)F)C(F)(F)F)cc2OC(F)F)c1 [Compound No. 5-15],80.0
2,"CN(CCF)C(=O)C(=O)Nc1cccc(C(=O)Nc2c(Br)cc(C(F)(C(F)(F)F)C(F)(F)F)cc2C(F)(F)F)c1F [Compound No. 6-1, 2-fluoro-3-[N-(2-fluoroethyl)-N-methylaminoxalylamino]-N-[2-bromo-4-heptafluoroisopropyl-6-(trifluoromethyl)phenyl]benzamide]",100
3,"CN(CCF)C(=O)C(=O)Nc1cccc(C(=O)Nc2c(I)cc(C(F)(C(F)(F)F)C(F)(F)F)cc2C(F)(F)F)c1F [Compound No. 6-2, 2-fluoro-3-[N-(2-fluoroethyl)-N-methylaminoxalylamino]-N-[2-iodo-4-heptafluoroisopropyl-6-(trifluoromethyl)phenyl]benzamide]",100

# System: Haemaphyxalis Longicornis
# Assay: Dry Film Insecticidal Test for Haemaphyxalis Longicornis
# Format: in vivo
# Conditions: 1 ml of 1 ppm acetone solution dried on 9 cm glass petri dish; young ticks; 48 hours of exposure; 25° C.; dead and anguish ticks
# Description: 1 ml of an acetone solution that was prepared so that the compound was included at a concentration of 1 ppm was added dropwise to a glass petri dish having a diameter of 9 cm. After the addition, the acetone was air-dried for use in the test. About 10 young ticks were added. Then the dish was covered by a plastic film and sealed with a lid. The dish was placed in a constant temperature bath that was set at a temperature of 25° C., at a humidity of 100%, and with a light:dark cycle of 16:8.
# After 48 hours of the exposure, the conditions of the ticks were examined and classified into “alive”, “dead (including a moribund condition)”, and “anguish”. The death rates after 48 hours are illustrated in Table 9.
# The death rates were calculated as follows: Death Rate (%)=(Number of Dead and Anguish Ticks)/Total Number of Ticks×100
row,Compound,Death Rate after 48 hours (%)
1,CN(CC(F)(F)F)C(=O)C(=O)Nc1cccc(C(=O)Nc2c(Cl)cc(C(F)(C(F)(F)F)C(F)(F)F)cc2C(F)(F)F)c1F [6-3],100
2,CN(CC(F)(F)F)C(=O)C(=O)N(C)c1cccc(C(=O)Nc2c(Br)cc(C(F)(C(F)(F)F)C(F)(F)F)cc2C(F)(F)F)c1F [6-4],100
3,CN(CC(F)(F)F)C(=O)C(=O)N(C)c1cccc(C(=O)Nc2c(I)cc(C(F)(C(F)(F)F)C(F)(F)F)cc2C(F)(F)F)c1F [6-5],100
4,CN(CC(F)(F)F)C(=O)C(=O)Nc1cccc(C(=O)Nc2c(Br)cc(C(F)(C(F)(F)F)C(F)(F)F)cc2SC(F)(F)F)c1F [6-6],100
5,CN(CC(F)(F)F)C(=O)C(=O)Nc1cccc(C(=O)Nc2c(Br)cc(C(F)(C(F)(F)F)C(F)(F)F)cc2[S+]([O-])C(F)(F)F)c1F (stereo not drawn) [6-7],100
6,CN(CC(F)(F)F)C(=O)C(=O)Nc1cccc(C(=O)Nc2c(Br)cc(C(F)(C(F)(F)F)C(F)(F)F)cc2S(=O)(=O)C(F)(F)F)c1F [6-8],100
7,CN(CC(F)(F)F)C(=O)C(=O)Nc1cccc(C(=O)Nc2c(I)cc(C(F)(C(F)(F)F)C(F)(F)F)cc2SC(F)(F)F)c1F [6-9],100
8,CN(CC(F)(F)F)C(=O)C(=O)Nc1cccc(C(=O)Nc2c(I)cc(C(F)(C(F)(F)F)C(F)(F)F)cc2[S+]([O-])C(F)(F)F)c1F (stereo not drawn) [6-10],100
9,CN(CC(F)(F)F)C(=O)C(=O)Nc1cccc(C(=O)Nc2c(I)cc(C(F)(C(F)(F)F)C(F)(F)F)cc2S(=O)(=O)C(F)(F)F)c1F [6-11],100
10,CN(CC(F)(F)F)C(=O)C(=O)Nc1cccc(C(=O)Nc2c(Br)cc(C(F)(C(F)(F)F)C(F)(F)F)cc2OC(F)F)c1F [6-12],100
11,CN(CC(F)(F)F)C(=O)C(=O)N(C)c1cccc(C(=O)Nc2c(Br)cc(C(F)(C(F)(F)F)C(F)(F)F)cc2OC(F)F)c1F [6-13],100
12,CCN(C)C(=O)C(=O)N(C)c1cccc(C(=O)Nc2c(I)cc(C(F)(C(F)(F)F)C(F)(F)F)cc2OC(F)F)c1F [6-14],100
13,CCN(C)C(=O)C(=O)N(C)c1cccc(C(=O)Nc2c(I)cc(C(F)(C(F)(F)F)C(F)(F)C(F)(F)F)cc2OC(F)F)c1F (stereo not drawn) [6-15],100
14,CCN(C)C(=O)C(=O)N(C)c1cccc(C(=O)Nc2c(C)cc(C(F)(C(F)(F)F)C(F)(F)C(F)(F)F)cc2OC(F)F)c1F (stereo not drawn) [6-16],100
15,CN(CC(F)(F)F)C(=O)C(=O)N(C)c1cccc(C(=O)Nc2c(I)cc(C(F)(C(F)(F)F)C(F)(F)C(F)(F)F)cc2SC(F)(F)F)c1F (stereo not drawn) [6-18],100
16,CN(CC(F)(F)F)C(=O)C(=O)N(C)c1cccc(C(=O)Nc2c(I)cc(C(F)(C(F)(F)F)C(F)(F)C(F)(F)F)cc2S(=O)(=O)C(F)(F)F)c1F (stereo not drawn) [6-19],100
17,CCN(C)C(=O)C(=O)N(C)c1cccc(C(=O)Nc2c(I)cc(C(F)(C(F)(F)F)C(F)(F)C(F)(F)F)cc2S(=O)(=O)C(F)(F)F)c1F (stereo not drawn) [6-20],100
18,CN(CC(F)(F)F)C(=O)C(=O)Nc1cccc(C(=O)Nc2c(Br)cc(C(F)(C(F)(F)F)C(F)(F)F)cc2Br)c1F [Compound No. 4-66],100
19,CCN(C)C(=O)C(=O)Nc1cccc(C(=O)Nc2c(Br)cc(C(F)(C(F)(F)F)C(F)(F)F)cc2OC(F)F)c1 [Compound No. 5-15],100
20,"CN(CCF)C(=O)C(=O)Nc1cccc(C(=O)Nc2c(Br)cc(C(F)(C(F)(F)F)C(F)(F)F)cc2C(F)(F)F)c1F [Compound No. 6-1, 2-fluoro-3-[N-(2-fluoroethyl)-N-methylaminoxalylamino]-N-[2-bromo-4-heptafluoroisopropyl-6-(trifluoromethyl)phenyl]benzamide]",100
21,"CN(CCF)C(=O)C(=O)Nc1cccc(C(=O)Nc2c(I)cc(C(F)(C(F)(F)F)C(F)(F)F)cc2C(F)(F)F)c1F [Compound No. 6-2, 2-fluoro-3-[N-(2-fluoroethyl)-N-methylaminoxalylamino]-N-[2-iodo-4-heptafluoroisopropyl-6-(trifluoromethyl)phenyl]benzamide]",100
